Reference: patent US20250115669A1, “FGFR1/KLB Targeting Agonistic Antigen-Binding Proteins and Conjugates Thereof with GLP-1R Agonistic Peptides” (SANOFI, priority 2020, published 2025)
Read-outs that look alike come from different tables or passages of the source. Peptide text beside a SMILES is read from it.

Key:
Type in all cases: cell-based
[1] = biological target: T1, human glucagon (GCG) receptor (Homo sapiens, UniProt P47871); experiment: HTRF cAMP assay in HEK-293 cells expressing human glucagon receptor
T1 construct: expressed in transfected cells; host or cells: PSC-HEK-293
T1 sequence (P47871 26-477): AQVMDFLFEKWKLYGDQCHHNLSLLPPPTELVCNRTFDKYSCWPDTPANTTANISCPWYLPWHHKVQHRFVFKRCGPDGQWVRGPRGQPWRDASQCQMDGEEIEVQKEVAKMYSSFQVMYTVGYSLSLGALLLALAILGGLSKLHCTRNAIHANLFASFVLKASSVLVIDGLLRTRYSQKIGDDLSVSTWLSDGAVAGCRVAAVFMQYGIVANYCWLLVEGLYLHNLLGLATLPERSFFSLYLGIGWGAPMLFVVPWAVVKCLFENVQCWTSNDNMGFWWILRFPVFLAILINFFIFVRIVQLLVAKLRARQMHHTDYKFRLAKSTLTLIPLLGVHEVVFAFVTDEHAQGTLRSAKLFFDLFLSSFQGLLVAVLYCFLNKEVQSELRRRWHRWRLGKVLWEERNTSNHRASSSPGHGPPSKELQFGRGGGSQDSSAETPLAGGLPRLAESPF

[2] = biological target: T2, human GLP-1 receptor (Homo sapiens, UniProt P43220); experiment: HTRF cAMP assay in HEK-293 cells expressing human GLP-1 receptor
T2 construct: expressed in transfected cells; host or cells: PSC-HEK-293
T2 sequence (P43220 24-463): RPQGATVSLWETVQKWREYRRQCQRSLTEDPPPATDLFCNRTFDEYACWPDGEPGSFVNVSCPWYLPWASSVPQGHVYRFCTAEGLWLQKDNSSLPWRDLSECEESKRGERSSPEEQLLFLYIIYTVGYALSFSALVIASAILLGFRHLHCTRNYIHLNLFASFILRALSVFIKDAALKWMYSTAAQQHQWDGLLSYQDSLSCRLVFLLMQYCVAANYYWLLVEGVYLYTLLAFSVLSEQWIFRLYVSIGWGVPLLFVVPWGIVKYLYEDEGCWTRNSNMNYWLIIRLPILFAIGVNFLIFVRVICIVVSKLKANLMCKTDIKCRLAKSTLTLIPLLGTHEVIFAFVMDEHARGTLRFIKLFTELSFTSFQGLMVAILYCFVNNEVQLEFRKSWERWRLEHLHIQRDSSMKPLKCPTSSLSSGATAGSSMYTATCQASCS
Experimental: Each vial contained 1.8 ml cells. The vials were slowly frozen to −80° C. in isopropanol, and then transferred in liquid nitrogen for storage.
Cells were resuspended in assay buffer (cell buffer plus 2 mM IBMX) and adjusted to a cell density of 1 million cells/ml.
For measurement of cAMP generation, 5 μl cells (final 5000 cells/well) and 5 μl of test compound were added to a 384-well plate, followed by incubation for 30 min at room temperature.
The cAMP generated was determined using a kit from Cisbio Corp. based on HTRF (Homogenous Time Resolved Fluorescence). The cAMP assay was performed according to manufacturer's instructions (Cisbio).

[3] = biological target: T3, human GIP receptor (Homo sapiens, UniProt P48546); experiment: HTRF cAMP assay in HEK-293 cells expressing human GIP receptor
T3 construct: expressed in transfected cells; host or cells: PSC-HEK-293
T3 sequence (P48546 22-466): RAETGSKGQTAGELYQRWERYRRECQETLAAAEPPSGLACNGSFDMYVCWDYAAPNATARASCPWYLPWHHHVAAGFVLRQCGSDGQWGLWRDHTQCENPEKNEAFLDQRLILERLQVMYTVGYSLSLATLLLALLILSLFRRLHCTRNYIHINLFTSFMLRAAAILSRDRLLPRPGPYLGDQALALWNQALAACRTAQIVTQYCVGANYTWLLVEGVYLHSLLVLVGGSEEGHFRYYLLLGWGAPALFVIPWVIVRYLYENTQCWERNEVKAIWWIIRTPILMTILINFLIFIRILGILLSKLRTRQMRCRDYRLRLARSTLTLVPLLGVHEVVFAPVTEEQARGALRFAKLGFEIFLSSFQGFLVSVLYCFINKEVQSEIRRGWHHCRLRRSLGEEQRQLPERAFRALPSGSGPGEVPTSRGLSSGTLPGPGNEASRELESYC

[4] = HEK-293 cells, read-out: HTRF cAMP EC50 Human GCGR
[5] = HEK-293 cells, read-out: HTRF cAMP EC50 Human GLP-1R
[6] = HEK-293 cells, read-out: HTRF cAMP EC50 Human GIPR

Compound	EC50 [1, 4] [nM]	EC50 [2, 5] [nM]	EC50 [3, 6] [nM]	EC50 [1] [nM]	EC50 [2] [nM]	EC50 [3] [nM]
CC[C@H](C)[C@H](NC(=O)[C@H](Cc1ccccc1)NC(=O)[C@H](CC(C)C)NC(=O)[C@H](CCC(N)=O)NC(=O)[C@@H](NC(=O)[C@H](C)NC(=O)[C@H](CCC(=O)O)NC(=O)[C@H](CCC(=O)O)NC(=O)[C@H](CCC(=O)O)NC(=O)[C@H](CC(C)C)NC(=O)[C@H](CCC(N)=O)NC(=O)[C@H](CCCCN)NC(=O)[C@H](CO)NC(=O)[C@H](CC(C)C)NC(=O)[C@H](CC(=O)O)NC(=O)[C@H](CO)NC(=O)[C@@H](NC(=O)[C@H](Cc1ccccc1)NC(=O)[C@@H](NC(=O)CNC(=O)[C@H](CCC(=O)O)NC(=O)CNC(=O)[C@H](Cc1c[nH]cn1)NC(=O)CN)[C@@H](C)O)[C@@H](C)O)C(C)C)C(=O)N[C@@H](CCC(=O)O)C(=O)N[C@@H](Cc1c[nH]c2ccccc12)C(=O)N[C@@H](CC(C)C)C(=O)N[C@@H](CCCCN)C(=O)N[C@@H](C)C(=O)NCC(=O)NCC(=O)N1CCC[C@H]1C(=O)N[C@@H](CCCCN)C(=O)N[C@@H](CCCCN)C(=O)N[C@H](C(=O)N[C@@H](CCCNC(=N)N)C(=O)N[C@@H](Cc1ccc(O)cc1)C(=O)N[C@@H](CO)C(N)=O)[C@@H](C)CC [Ab P015] (H-GHGEGTFTSDLSKQLEEEAVQLFIEWLKAGGPKKIRYS-NH2; N-terminus assumed)	> 10	0.0156	> 10			
CC[C@H](C)[C@H](NC(=O)[C@H](Cc1ccccc1)NC(=O)[C@H](CC(C)C)NC(=O)[C@H](CCCNC(=N)N)NC(=O)[C@@H](NC(=O)[C@H](C)NC(=O)[C@H](CCC(=O)O)NC(=O)[C@H](CCC(=O)O)NC(=O)[C@H](CCC(=O)O)NC(=O)[C@H](CC(C)C)NC(=O)[C@H](CCC(N)=O)NC(=O)[C@H](CCCCN)NC(=O)[C@H](CO)NC(=O)[C@H](CC(C)C)NC(=O)[C@H](CC(=O)O)NC(=O)[C@H](CO)NC(=O)[C@@H](NC(=O)[C@H](Cc1ccccc1)NC(=O)[C@@H](NC(=O)CNC(=O)[C@H](CCC(=O)O)NC(=O)CNC(=O)[C@H](Cc1c[nH]cn1)NC(=O)CN)[C@@H](C)O)[C@@H](C)O)C(C)C)C(=O)N[C@@H](CCC(=O)O)C(=O)N[C@@H](Cc1c[nH]c2ccccc12)C(=O)N[C@@H](CC(C)C)C(=O)N[C@@H](CCCCN)C(=O)N[C@@H](C)C(=O)NCC(=O)NCC(=O)N1CCC[C@H]1C(=O)N[C@@H](CO)C(=O)N[C@@H](CO)C(=O)NCC(=O)N[C@@H](C)C(=O)N1CCC[C@H]1C(=O)N1CCC[C@H]1C(=O)N1CCC[C@H]1C(=O)N[C@@H](CO)C(N)=O [Ab P017] (H-GHGEGTFTSDLSKQLEEEAVRLFIEWLKAGGPSSGAPPPS-NH2)				> 10	0.0085	> 10
CC[C@H](C)[C@H](NC(=O)[C@H](Cc1ccccc1)NC(=O)[C@H](CC(C)C)NC(=O)[C@H](CCCNC(=N)N)NC(=O)[C@@H](NC(=O)[C@H](C)NC(=O)[C@H](CCC(=O)O)NC(=O)[C@H](CCC(=O)O)NC(=O)[C@H](CCC(=O)O)NC(=O)[C@H](CC(C)C)NC(=O)[C@H](CCC(N)=O)NC(=O)[C@H](CCCCN)NC(=O)[C@H](CO)NC(=O)[C@H](CCCCN)NC(=O)[C@H](CC(=O)O)NC(=O)[C@H](CO)NC(=O)[C@@H](NC(=O)[C@H](Cc1ccccc1)NC(=O)[C@@H](NC(=O)CNC(=O)[C@H](CCC(=O)O)NC(=O)CNC(=O)[C@H](Cc1c[nH]cn1)NC(=O)CN)[C@@H](C)O)[C@@H](C)O)C(C)C)C(=O)N[C@@H](CCC(=O)O)C(=O)N[C@@H](Cc1c[nH]c2ccccc12)C(=O)N[C@@H](CC(C)C)C(=O)N[C@@H](CCCCN)C(=O)N[C@@H](C)C(=O)NCC(=O)NCC(=O)N1CCC[C@H]1C(=O)N[C@@H](CO)C(=O)N[C@@H](CO)C(=O)NCC(=O)N[C@@H](C)C(=O)N1CCC[C@H]1C(=O)N1CCC[C@H]1C(=O)N1CCC[C@H]1C(=O)N[C@@H](CO)C(N)=O [Ab P021] (H-GHGEGTFTSDKSKQLEEEAVRLFIEWLKAGGPSSGAPPPS-NH2)				> 10	0.0276	> 10

Now from value to compound, other results behind:

EC50 [1, 4] [nM]	EC50 [2, 5] [nM]	EC50 [3, 6] [nM]	Compound	EC50 [1] [nM]	EC50 [2] [nM]	EC50 [3] [nM]
> 10	0.0017	> 10	CC[C@H](C)[C@H](NC(=O)[C@H](CC(C)C)NC(=O)[C@H](Cc1c[nH]c2ccccc12)NC(=O)[C@H](CC(C)C)NC(=O)[C@@H](NC(=O)[C@H](Cc1ccccc1)NC(=O)[C@H](CC(C)C)NC(=O)[C@H](CCCNC(=N)N)NC(=O)[C@@H](NC(=O)[C@H](CC(C)C)NC(=O)[C@H](CCCNC(=N)N)NC(=O)[C@H](CCCCN)NC(=O)[C@H](CCC(=O)O)NC(=O)[C@H](CC(C)C)NC(=O)[C@H](CCC(N)=O)NC(=O)[C@H](CCCCN)NC(=O)[C@H](CO)NC(=O)[C@H](CCCCN)NC(=O)[C@H](CC(=O)O)NC(=O)[C@H](CO)NC(=O)[C@@H](NC(=O)[C@H](Cc1ccccc1)NC(=O)[C@@H](NC(=O)CNC(=O)[C@H](CCC(=O)O)NC(=O)CNC(=O)[C@@H](N)Cc1c[nH]cn1)[C@@H](C)O)[C@@H](C)O)C(C)C)[C@@H](C)CC)C(=O)N[C@@H](C)C(=O)NCC(=O)NCC(=O)N[C@@H](Cc1c[nH]cn1)C(=O)N[C@@H](CO)C(=O)N[C@@H](CO)C(=O)NCC(=O)N[C@@H](CCCCN)C(=O)N1CCC[C@H]1C(=O)N1CCC[C@H]1C(=O)N1CCC[C@H]1C(=O)N[C@@H](CCCCN)C(N)=O [Ab P023] (H-HGEGTFTSDKSKQLEKRLVRLFILWLIAGGHSSGKPPPK-NH2; N-terminus assumed)			
> 10	0.0026	≥ 10	CC[C@H](C)[C@H](NC(=O)[C@H](CC(C)C)NC(=O)[C@H](Cc1c[nH]c2ccccc12)NC(=O)[C@H](Cc1ccc(O)cc1)NC(=O)[C@@H](NC(=O)[C@H](Cc1ccccc1)NC(=O)[C@H](CC(C)C)NC(=O)[C@H](CCCNC(=N)N)NC(=O)[C@@H](NC(=O)[C@H](CC(C)C)NC(=O)[C@H](CCCNC(=N)N)NC(=O)[C@H](CCCCN)NC(=O)[C@H](CCC(=O)O)NC(=O)[C@H](CC(C)C)NC(=O)[C@H](CCC(N)=O)NC(=O)[C@H](CCCCN)NC(=O)[C@H](CO)NC(=O)[C@H](CCCCN)NC(=O)[C@H](CC(=O)O)NC(=O)[C@H](CO)NC(=O)[C@@H](NC(=O)[C@H](Cc1ccccc1)NC(=O)[C@@H](NC(=O)CNC(=O)[C@H](CCC(=O)O)NC(=O)CNC(=O)[C@@H](N)Cc1c[nH]cn1)[C@@H](C)O)[C@@H](C)O)C(C)C)[C@@H](C)CC)C(=O)N[C@@H](C)C(=O)NCC(=O)NCC(=O)N[C@@H](Cc1c[nH]cn1)C(=O)N[C@@H](CO)C(=O)N[C@@H](CO)C(=O)NCC(=O)N[C@@H](CCCCN)C(=O)N1CCC[C@H]1C(=O)N1CCC[C@H]1C(=O)N1CCC[C@H]1C(=O)N[C@@H](CCCCN)C(N)=O [Ab P024] (H-HGEGTFTSDKSKQLEKRLVRLFIYWLIAGGHSSGKPPPK-NH2; N-terminus assumed)			
